Holding throughout (format): cell-based, C. elegans
One test has as its target T1, LGC-50 Δ363-379 (Caenorhabditis elegans, UniProt P41849, DEL363-379).
T1 construct: Plasmid: KSM: lgc-50 (cDNA, Δ363-379); expressed in transfected cells; host or cells: Xenopus laevis oocytes injected with cRNA (plasmid pIH142)
Briefly: Two-electrode voltage clamp, 5-HT evoked dose response, LGC-50 deletion mutant Δ363-379. How it is done: (§1) To identify such domains, we tested the effects of deletion mutations in the LGC-50 M3/4 loop (Figure 5A).
(§2) Defolliculated Xenopus laevis oocytes were obtained from EcoCyte Bioscience (Dortmund, Germany) and maintained in ND96 (in mM: 96 NaCl, 1 MgCl2, 5 HEPES, 1.8 CaCl2, 2 KCl) solution at 16°C for 3-5 days.
(§3) 5'-capped cRNA was synthesized in vitro using the T3 mMessage mMachine transcription kit according to manufacturer’s protocol (Thermo Fischer Scientific, CA, USA). RNA was then purified using the GeneJET RNA purification kit (Thermo Fischer Scientific, CA, USA) prior to cRNA injection. […]
(§4) Two-electrode voltage clamp recordings were carried out using the Robocyte2 recording system or a manual TEVC set up, using an OC-725D amplifier (Multi Channel Systems, Reutlingen, Germany) and paired with a custom-made recording chamber and agar bridges from reference and bath electrodes. […] Data was recorded using WinWCP or RoboCyte2 control software, manual data was filtered at 10 Hz.
(§5) Dose response curves were calculated from the peak current during a 10 s agonist stimulation in ND96 solution, with a 60 s ND96 wash in between doses. […] Normalized dose response data was fitted to a nonlinear curve using a four parameters variable slope and the EC50 and Hill slope was calculated. […] Kinetic measurements were calculated from a 60 s agonist perfusion. […]
On the technique in general: In two-electrode clamp one electrode senses voltage and the other passes current.

For the next test, the target named is T2, LGC-50 Δ363-397 (Caenorhabditis elegans, UniProt P41849, DEL363-397).
T2 construct: Plasmid: KSM: lgc-50 (cDNA, Δ363 - 397); expressed in transfected cells; host or cells: Xenopus laevis oocytes injected with cRNA (plasmid pJML138)
T2 sequence (P41849 other isoform, or with tags, fused parts or gaps DEL363-397): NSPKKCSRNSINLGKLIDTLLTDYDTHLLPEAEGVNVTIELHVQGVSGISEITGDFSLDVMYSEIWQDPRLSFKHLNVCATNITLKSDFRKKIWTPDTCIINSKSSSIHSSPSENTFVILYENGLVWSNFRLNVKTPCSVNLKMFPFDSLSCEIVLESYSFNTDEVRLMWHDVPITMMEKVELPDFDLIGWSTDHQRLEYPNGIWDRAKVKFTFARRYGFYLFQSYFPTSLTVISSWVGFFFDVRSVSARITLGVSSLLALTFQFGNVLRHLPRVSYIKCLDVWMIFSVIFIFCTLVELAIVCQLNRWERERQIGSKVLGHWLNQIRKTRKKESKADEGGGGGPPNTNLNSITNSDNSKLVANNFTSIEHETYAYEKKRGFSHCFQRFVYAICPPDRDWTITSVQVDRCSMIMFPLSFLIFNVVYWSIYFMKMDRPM
The test is described as follows: Two-electrode voltage clamp, 5-HT evoked dose response, LGC-50 deletion mutant Δ363-397. How it is done: as §1, §2, §3, §4, §5

In the next test the target is T3, LGC-50:MOD-1(327-458) (Caenorhabditis elegans, UniProt P41849).
T3 construct: Plasmid: KSM: lgc-50:mod-1(327-458) (cDNA); MOD-1 residues 327-458 (M3/4 loop); expressed in transfected cells; host or cells: Xenopus laevis oocytes injected with cRNA (plasmid pIH125)
T3 sequence (P41849 with tags, fused parts or gaps): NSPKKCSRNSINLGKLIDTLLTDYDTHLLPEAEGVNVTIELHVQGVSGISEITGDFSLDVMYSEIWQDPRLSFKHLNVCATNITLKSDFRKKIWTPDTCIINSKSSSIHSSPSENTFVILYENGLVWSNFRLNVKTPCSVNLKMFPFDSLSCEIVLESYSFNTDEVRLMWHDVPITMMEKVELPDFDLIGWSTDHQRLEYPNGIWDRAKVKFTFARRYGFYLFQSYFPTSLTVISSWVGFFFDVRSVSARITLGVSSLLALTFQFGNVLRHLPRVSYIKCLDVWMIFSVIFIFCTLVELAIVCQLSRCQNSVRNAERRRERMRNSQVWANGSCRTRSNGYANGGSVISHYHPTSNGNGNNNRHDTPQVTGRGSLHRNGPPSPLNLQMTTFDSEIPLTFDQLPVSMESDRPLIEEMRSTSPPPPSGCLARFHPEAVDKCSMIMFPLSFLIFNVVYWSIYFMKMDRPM
Briefly: Two-electrode voltage clamp, 5-HT evoked dose response, LGC-50 chimera with MOD-1 M3/4 loop. The following applies: Xenopus oocytes, TEVC; LGC-50 with M3/4 loop of MOD-1. As for the experimental part: To investigate, we exchanged the intracellular M3/4 loop of LGC-50 with the equivalent region of MOD-1 (LGC-50:MOD-1 327–458) and expressed the chimera in oocytes. […] The EC50 of the chimeric channels matched that of the recipient channel (Figures 5C and 5D).
as §2
5'-capped cRNA was synthesized in vitro using the T3 mMessage mMachine transcription kit according to manufacturer’s protocol (Thermo Fischer Scientific, CA, USA). […]
as §4, §5

Structures are written as SMILES.

We go through one compound from PMC8536830 (Current Biology, 2021).

T1 sequence (P41849 other isoform, or with tags, fused parts or gaps DEL363-379): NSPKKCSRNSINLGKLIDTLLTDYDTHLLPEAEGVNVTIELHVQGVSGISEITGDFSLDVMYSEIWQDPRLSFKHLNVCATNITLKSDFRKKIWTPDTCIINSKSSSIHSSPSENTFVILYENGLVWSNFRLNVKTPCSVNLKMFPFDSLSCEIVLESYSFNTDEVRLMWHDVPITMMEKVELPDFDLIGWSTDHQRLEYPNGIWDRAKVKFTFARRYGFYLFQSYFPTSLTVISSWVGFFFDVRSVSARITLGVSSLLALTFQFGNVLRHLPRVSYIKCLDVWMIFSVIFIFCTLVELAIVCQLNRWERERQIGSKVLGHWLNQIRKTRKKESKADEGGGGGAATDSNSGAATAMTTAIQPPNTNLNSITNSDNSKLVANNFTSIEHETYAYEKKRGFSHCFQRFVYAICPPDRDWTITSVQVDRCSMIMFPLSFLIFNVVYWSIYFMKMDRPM

By EC50 is commonly meant the concentration at which the effect is half-maximal. Low values mean higher potency in that assay, high ones lower potency in that assay. Take `NCCc1c[nH]c2ccc(O)cc12` [5-HT, serotonin]: the EC50 was determined as 930 nM at LGC-50 Δ363-379, 930 nM at LGC-50 Δ363-397 and 850 nM on LGC-50:MOD-1(327-458).
